Measured values published in US20100056508A1, “AMINE DERIVATIVES AND THEIR USE IN BETA-2-ADRENORECEPTOR MEDIATED DISEASES” (ASTRAZENECA AB, priority 2006, published 2010).
Structures can show the parent of a compound that is named as a salt.

What was measured:
Adrenergic β2 = biological target: T1, Adrenergic β2 (Homo sapiens, UniProt P07550); assay: Adrenergic β2 mediated cAMP production in H292 cells (AlphaScreen cAMP detection); type: cell-based; parameters: key to β2 Int Act: fraction of formoterol maximum activity (formoterol = 1); settings: for β2 Int Act: Intrinsic Activity as a fraction relative to the maximum activity determined for formoterol; for EC50: cAMP production, 60 minutes at room temperature, 300 μM rolipram, read-out: β2 pEC50 (converted)
T1 construct: Adherent H292 cells were removed from tissue culture flasks; endogenous in cells; host or cells: H292 cells
T1 sequence (P07550 whole entry): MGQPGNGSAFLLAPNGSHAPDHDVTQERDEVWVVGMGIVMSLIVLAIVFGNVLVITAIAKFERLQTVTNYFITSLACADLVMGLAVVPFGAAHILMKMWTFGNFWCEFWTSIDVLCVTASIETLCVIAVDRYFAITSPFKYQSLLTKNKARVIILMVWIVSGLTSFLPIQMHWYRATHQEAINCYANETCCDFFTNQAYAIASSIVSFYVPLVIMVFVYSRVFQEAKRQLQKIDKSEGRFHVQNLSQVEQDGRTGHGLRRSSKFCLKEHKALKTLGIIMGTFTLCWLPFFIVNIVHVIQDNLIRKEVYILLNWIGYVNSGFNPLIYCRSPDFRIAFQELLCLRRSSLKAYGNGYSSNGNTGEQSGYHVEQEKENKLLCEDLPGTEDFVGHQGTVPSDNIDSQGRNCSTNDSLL
Experimental: Adrenergic β2 Mediated cAMP Production
H292 cells were grown in 225 cm2 flasks incubator at 37° C., 5% CO2 in RPMI medium containing, 10% (v/v) FBS (foetal bovine serum) and 2 mM L-glutamine.
Adherent H292 cells were removed from tissue culture flasks by treatment with Accutase™ cell detachment solution for 15 minutes. Flasks were incubated for 15 minutes in a humidified incubator at 37° C., 5% CO2. Detached cells were re-suspended in RPMI media (containing 10% (v/v) FBS and 2 mM L-glutamine) at 1×10^6 cells per mL. 10000 cells in 100 μL were added to each well of a tissue-culture-treated 96-well plate and the cells incubated overnight in a humidified incubator at 37° C., 5% CO2. The culture media was removed and cells were washed twice with 100 μL assay buffer and replaced with 50 μL assay buffer (HBSS solution containing 10 mM HEPES pH7.4 and 5 mM glucose). Cells were rested at room temperature for 20 minutes after which time 25 μL of rolipram (1.2 mM made up in assay buffer containing 2.4% (v/v) dimethylsulphoxide) was added. Cells were incubated with rolipram for 10 minutes after which time test compounds were added and the cells were incubated for 60 minutes at room temperature. The final rolipram concentration in the assay was 300 μM and final vehicle concentration was 1.6% (v/v) dimethylsulphoxide. The reaction was stopped by removing supernatants, washing once with 100 μL assay buffer and replacing with 50 μL lysis buffer. The cell monolayer was frozen at −80° C. for 30 minutes (or overnight).
AlphaScreen™ cAMP Detection
The concentration of cAMP (cyclic adenosine monophosphate) in the cell lysate was determined using AlphaScreen™ methodology. The frozen cell plate was thawed for 20 minutes on a plate shaker then 10 μL of the cell lysate was transferred to a 96-well white plate. 40 μL of mixed AlphaScreen™ detection beads pre-incubated with biotinylated cAMP, was added to each well and the plate incubated at room temperature for 10 hours in the dark. The AlphaScreen™ signal was measured using an EnVision spectrophotometer (Perkin-Elmer Inc.) with the recommended manufacturer's settings. cAMP concentrations were determined by reference to a calibration curve determined in the same experiment using standard cAMP concentrations. Concentration response curves for agonists were constructed and data was fitted to a four parameter logistic equation to determine both the pEC50 and Intrinsic Activity. Intrinsic Activity was expressed as a fraction relative to the maximum activity determined for formoterol in each experiment.

[1] = biological target: T2, recombinant human α1D receptor (Homo sapiens, UniProt P25100); assay: Adrenergic α1D selectivity assay, [3H]-prazosin binding to membranes; settings: inhibition of [3H]-prazosin binding, HEK cell membranes, read-out: α1 bind pIC50 (converted)
T2 construct: expressed in transfected cells; host or cells: human embryonic kidney 293 cells (HEK93 [sic]), membranes
T2 sequence (P25100 1-572): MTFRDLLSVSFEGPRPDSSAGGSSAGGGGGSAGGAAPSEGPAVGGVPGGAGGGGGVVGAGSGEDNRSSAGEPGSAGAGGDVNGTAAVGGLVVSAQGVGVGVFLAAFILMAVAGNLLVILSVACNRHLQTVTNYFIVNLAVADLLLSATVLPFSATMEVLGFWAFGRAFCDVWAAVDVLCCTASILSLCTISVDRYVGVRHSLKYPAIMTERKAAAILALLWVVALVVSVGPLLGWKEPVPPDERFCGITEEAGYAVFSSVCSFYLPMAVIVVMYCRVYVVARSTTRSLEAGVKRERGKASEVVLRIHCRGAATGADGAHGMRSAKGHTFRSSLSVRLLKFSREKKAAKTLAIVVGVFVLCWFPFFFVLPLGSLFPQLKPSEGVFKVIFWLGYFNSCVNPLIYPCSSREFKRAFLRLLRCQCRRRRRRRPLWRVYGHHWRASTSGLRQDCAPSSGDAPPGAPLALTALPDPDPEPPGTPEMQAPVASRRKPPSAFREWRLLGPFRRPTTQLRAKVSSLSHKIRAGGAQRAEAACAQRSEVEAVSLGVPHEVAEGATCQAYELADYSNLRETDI
Experimental: Membranes were prepared from human embryonic kidney 293 ([…]) cells expressing recombinant human α1D receptor. These were diluted in Assay Buffer (50 mM HEPES, 1 mM EDTA, pH 7.4) to provide a final concentration of membranes that gave a clear window between maximum and minimum specific binding.
Assays were performed in U-bottomed 96-well polypropylene plates. 10 μL [^3H]-prazosin (0.3 nM final concentration) and […] of test compound (10× final concentration) were added to each test well. For each assay plate 8 replicates were obtained for [^3H]-prazosin binding in the presence of 10 μL vehicle (10% (v/v) DMSO in Assay Buffer; defining maximum binding) or 10 μL BMY7378 (10 μM final concentration; defining non-specific binding (NSB)). Membranes were then added to achieve a final volume of 100 μL. The plates were incubated for 2 hours at room temperature and then filtered onto PEI coated GF/B filter plates, pre-soaked for 1 hour in Assay Buffer, using a 96-well plate Tomtec cell harvester. Five washes with 250 μL wash buffer (50 mM HEPES, 1 mM EDTA, pH 7.4) were performed at 4° C. to remove unbound radioactivity. The plates were dried then sealed from underneath using Packard plate sealers and MicroScint-O (50 μL) was added to each well. The plates were sealed (TopSeal A) and filter-bound radioactivity was measured with a scintillation counter (TopCount, Packard BioScience) using a 3-minute counting protocol.
(§1) Total specific binding (B0) was determined by subtracting the mean NSB from the mean maximum binding. NSB values were also subtracted from values from all other wells. […] Data was fitted to a four parameter logistic equation to determine the compound potency, which was expressed as pIC50 (negative log molar concentration inducing 50% inhibition of [^3H]-prazosin binding).

[2] = biological target: T3, recombinant human Dopamine Subtype D2s receptors (Homo sapiens, UniProt P14416); assay: Dopamine D2 selectivity assay, [3H]-spiperone binding to membranes; settings: inhibition of [3H]-spiperone binding, read-out: D2 bind pIC50 (converted)
T3 construct: purchased Perkin Elmer
T3 sequence (P14416 1-414 isoform P14416-2): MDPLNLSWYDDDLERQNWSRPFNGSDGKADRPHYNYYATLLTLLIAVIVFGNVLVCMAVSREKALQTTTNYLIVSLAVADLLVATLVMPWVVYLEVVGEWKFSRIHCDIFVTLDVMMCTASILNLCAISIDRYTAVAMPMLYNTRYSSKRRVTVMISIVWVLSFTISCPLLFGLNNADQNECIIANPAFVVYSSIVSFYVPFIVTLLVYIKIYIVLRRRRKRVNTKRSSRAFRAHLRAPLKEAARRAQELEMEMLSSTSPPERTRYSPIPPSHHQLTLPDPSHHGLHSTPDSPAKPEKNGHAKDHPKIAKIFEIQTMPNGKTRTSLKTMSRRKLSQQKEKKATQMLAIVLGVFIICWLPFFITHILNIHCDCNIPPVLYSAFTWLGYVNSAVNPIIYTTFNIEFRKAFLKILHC
Experimental: Membranes containing recombinant human Dopamine Subtype D2s receptors were obtained from Perkin Elmer. These were diluted in Assay Buffer (50 mM HEPES, 1 mM EDTA, 120 mM NaCl, 0.1% gelatin, pH 7.4) to provide a final concentration of membranes that gave a clear window between maximum and minimum specific binding.
Assays were performed in U-bottomed 96-well polypropylene plates. 30 μL [^3H]-spiperone (0.16 nM final concentration) and 30 μL of test compound (10× final concentration) were added to each test well. For each assay plate 8 replicates were obtained for [^3H]-spiperone binding in the presence of 30 μL vehicle (10% (v/v) DMSO in Assay Buffer; defining maximum binding) or 30 μL Haloperidol (10 μM final concentration; defining non-specific binding (NSB)). Membranes were then added to achieve a final volume of 300 μL. The plates were incubated for 2 hours at room temperature and then filtered onto PEI coated GF/B filter plates, pre-soaked for 1 hour in Assay Buffer, using a 96-well plate Tomtec cell harvester. Five washes with 250 μL wash buffer (50 mM HEPES, 1 mM EDTA, 120 mM NaCl, pH 7.4) were performed at 4° C. to remove unbound radioactivity. The plates were dried then sealed from underneath using Packard plate sealers and MicroScint-0 (50 μL) was added to each well. The plates were sealed (TopSeal A) and filter-bound radioactivity was measured with a scintillation counter (TopCount, Packard BioScience) using a 3-minute counting protocol.
as §1, with “[^3H]-spiperone” for “[^3H]-prazosin”

β2 Int Act (Adrenergic β2)	EC50 (Adrenergic β2) [nM]	IC50 [1] [nM]	IC50 [2] [nM]	Compound
0.92	5.01	501	3980	Cl.O=C(CCOCCc1cccc(F)c1)N(CCNCCc1ccc(O)c2[nH]c(=O)ccc12)C1CCCCC1 [Example 72, N-Cyclohexyl-3-(3-fluorophenethoxy)-N-(2-(2-(8-hydroxy-2-oxo-1,2-dihydroquinolin-5-yl)ethylamino)ethyl)propanamide hydrochloride]
0.79	6.31	100	398	Cc1cccc(CCNCCC(=O)N(CCNCCc2ccc(O)c3[nH]c(=O)ccc23)C2CCCCCC2)c1 [Example 8, N-Cycloheptyl-N-(2-(2-(8-hydroxy-2-oxo-1,2-dihydroquinolin-5-yl)ethylamino)ethyl)-3-(3-methylphenethylamino)propanamide bis(trifluoroacetate)]
0.82	7.94	158	501	O=C(CCNCCc1cccc(F)c1)N(CCNCCc1ccc(O)c2[nH]c(=O)ccc12)C1CCCCCC1 [Example 5, N-Cycloheptyl-3-(3-fluorophenethylamino)-N-(2-(2-(8-hydroxy-2-oxo-1,2-dihydroquinolin-5-yl)ethylamino)ethyl)propanamide bis(trifluoroacetate)]
0.76	10	126	316	O=C(CCNCCc1ccccc1)N(CCNCCc1ccc(O)c2[nH]c(=O)ccc12)C1CCCCCC1 [Example 7, N-Cycloheptyl-N-(2-(2-(8-hydroxy-2-oxo-1,2-dihydroquinolin-5-yl)ethylamino)ethyl)-3-(phenethylamino)propanamide bis(trifluoroacetate)]
0.67	50.1	316	126	O=C(CCNCCc1cccc(-c2ccccc2)c1)N(CCNCCc1ccc(O)c2[nH]c(=O)ccc12)C1CCCCCC1 [Example 12, 3-(2-(Biphenyl-3-yl)ethylamino)-N-cycloheptyl-N-(2-(2-(8-hydroxy-2-oxo-1,2-dihydroquinolin-5-yl)ethylamino)ethyl)propanamide bis(trifluoroacetate)]
0.91	39.8			C[C@H](CNCCC(=O)N(CCNCCc1ccc(O)c2[nH]c(=O)ccc12)C1CCCCCC1)c1ccccc1 [Example 9, (S)—N-Cycloheptyl-N-(2-(2-(8-hydroxy-2-oxo-1,2-dihydroquinolin-5-yl)ethylamino)ethyl)-3-(2-phenylpropylamino)propanamide bis(trifluoroacetate)]

Continued, compound first:

Compound	β2 Int Act (Adrenergic β2)	EC50 (Adrenergic β2) [nM]	IC50 [1] [nM]	IC50 [2] [nM]
CCCCN(CCNCCc1ccc(O)c2[nH]c(=O)ccc12)C(=O)CCOCCc1ccccc1 [Example 1, N-Butyl-N-(2-(2-(8-hydroxy-2-oxo-1,2-dihydroquinolin-5-yl)ethylamino)ethyl)-3-phenethoxypropanamide hydrochloride]	0.9	398		
Cl.O=C(CCOCCc1ccccc1F)N(CCNCCc1ccc(O)c2[nH]c(=O)ccc12)C1CCCCC1 [Example 73, N-Cyclohexyl-3-(2-fluorophenethoxy)-N-(2-(2-(8-hydroxy-2-oxo-1,2-dihydroquinolin-5-yl)ethylamino)ethyl)propanamide hydrochloride]	0.94	3.98	631	5010
Cl.O=C(CCOCCc1ccc(F)cc1)N(CCNCCc1ccc(O)c2[nH]c(=O)ccc12)C1CCCCC1 [Example 71, N-Cyclohexyl-3-(4-fluorophenethoxy)-N-(2-(2-(8-hydroxy-2-oxo-1,2-dihydroquinolin-5-yl)ethylamino)ethyl)propanamide hydrochloride]	0.85	10	631	3980
O=C1Cc2c(CCNCCN(C(=O)CCNCCc3cccc(F)c3)C3CCCCC3)ccc(O)c2N1 [Example 20, N-Cyclohexyl-3-(3-fluorophenethylamino)-N-(2-(2-(7-hydroxy-2-oxoindolin-4-yl)ethylamino)ethyl)propanamide dihydrobromide]	0.78	7.94	158	398
O=C(CCOCCc1cc(F)cc(F)c1)N(CCNCCc1ccc(O)c2[nH]c(=O)ccc12)C1CCCCC1 [Example 78, N-Cyclohexyl-3-(3,5-difluorophenethoxy)-N-(2-(2-(8-hydroxy-2-oxo-1,2-dihydroquinolin-5-yl)ethylamino)ethyl)propanamide trifluoroacetate]	1.01	20	794	
